Where two headings read alike, the source gives them in different places.
What was measured:
[1] = test system: H2-uptake hydrogenase activity in S. Typhimurium 14028; experiment: Amperometric hydrogenase assay on whole cells grown with DMG; assay type: cell-based
Description: H2-uptake hydrogenase activity is required for colonization in a murine model.
Amperometric hydrogenase assays. […] Cells were suspended in phosphate-buffered saline (PBS) to a final concentration of 8×10^8, per mL and added to a sealed amperometric dual-electrode chamber, with constant stirring; 100 μL of H2-saturated phosphate-buffered saline was added to the chamber and the disappearance of H2 was recorded over time. Hydrogenase activity is expressed in nmoles of H2 oxidized per minute per 10^8 cells.

[2] = test system: S. Typhimurium strain 14028; experiment: Typhoid fever-mouse model (survival, organ burden); assay type: in vivo, BALB/c mice
Description: The bacterial burden in livers and spleens was determined three days after infection (FIG. 5).
Mouse experiments—Infection Experiments. […] Female BALB/c mice (Charles River, Boston, Mass.) were orally inoculated individually with the S. Typhimurium strain ATCC 14028, following previously described methods (Maier et al. 2004 Infect Immun 72:6294-6299; Maier et al. 2014 PLoS One 9:e110187; Lamichhane-Khadka R et al. 2015 Infect Immun 83:311-316). Briefly, S. Typhimurium cells grown overnight in LB were harvested, washed, and suspended in sterile PBS to a final OD of OD600 0.01 (approximately 10^7 CFU/mL) and 0.1-mL volumes (10^6 bacterial cells) were introduced orally into each mouse. […] The mice were observed twice daily, and morbidity was recorded. In addition, a fourth independent experiment was performed to determine organ (liver and spleen) bacterial burdens. In this experiment, two groups of eight mice each were inoculated with S. Typhimurium 14028. […] Infection with S.T. 14028 was done as described above. Mice were euthanized 72 hours after infection. Livers and spleens were removed and homogenized in sterile PBS. Dilutions of the homogenate were plated on bismuth sulfite agar plates (BD DIFCO, Becton Dickinson, Franklin Lakes, N.J.), a selective medium for Salmonella species. Colony forming units (CFU) were counted after overnight incubation of the plates at 37° C.

[3] = test system: C. jejuni (strain NCTC 11168); experiment: C. jejuni-chicken colonization experiment; assay type: in vivo, chickens
Description: Since chickens are natural hosts for C. jejuni, and chicken meat is one of the main sources of campylobacteriosis in humans, it was important to test the efficacy of DMG alone or in combination with copper in this animal model. Two independent trials were conducted, as described in FIG. 22. In both trials, the treatment was administered through ad libitum drinks, starting two to three days before C. jejuni inoculation (with strain NCTC 11168), and going through the end of each experiment. […] Nine days after inoculation with C. jejuni, chickens were euthanized, and their ceca were isolated for bacterial count. […] The treatment was administered two days before inoculation with C. jejuni, and chicken ceca were harvested eight days after inoculation.

Aβ40 peptide = Aβ40 peptide (Homo sapiens, UniProt P05067); experiment: Thioflavin T (ThT)-based Aβ40 aggregation assay; assay type: biochemical; parameters: purchased rPeptides, Watkinsville, Ga., USA kit #A-1180-1; host or cells: E. coli; details: for remaining activity at 100 µM: DMG 100 μM; for remaining activity at 100 µM / remaining activity at 500 µM / remaining activity at 1000 µM: read-out: Relative Aβ40 aggregation rate (% control); for remaining activity at 500 µM: DMG 500 μM; for remaining activity at 1000 µM: DMG 1000 μM
Description: Amyloid Beta aggregation. […] This kit contained human recombinant Aβ40 peptide (>97% pure, as determined by manufacturer's HPLC) with the following sequence […] (SEQ ID NO:1), as provided by the manufacturer. […] The aggregation of Aβ40, was shown by the increase in fluorescence (lex=440 nm/lem=485 nm) over time, was followed for 60 min or 120 min, with reading every three or five min, using a Synergy MX reader (Biotek, Winooski, Vt.). A ThT-only background control (no Aβ40 peptide) was included in triplicate in all experiments and subtracted from all readings. The aggregation rate, defined as the increase in fluorescence per min (RFU/min), was calculated by using the formula [A(440,485) at T40min)−A(440,485) at T20min]/20.

[4] = oral 3 mg DMG daily, three-day treatment
[5] = oral DMG 3 mg at 24 h and 30 min before and 24 h post infection, burden three days after infection, n=8
[6] = Experiment 1, ad libitum CuSO4 (0.2 mM) + DMG (10 mM), total n=6, 9 days p.i.
[7] = Experiment 2, ad libitum CuSO4 (0.2 mM) + DMG (15 mM), total n=5, 8 days p.i.
[8] = Experiment 2, ad libitum DMG (15 mM), total n=7, 8 days p.i.
[9] = first trial, DMG (10 mM) combined with CuSO4 (0.2 mM)
[10] = experiment B, no supplemental metal
[11] = experiment C, no supplemental metal

Aβ40 peptide, sequence (P05067 672-711): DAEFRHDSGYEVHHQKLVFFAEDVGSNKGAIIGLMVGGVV

Question: How did the “increase in hydrogenase activity compared to the 1 mM DMG medium” value ([1]; 1 mM DMG + 50 μM NiCl2) turn out when `CC(=NO)C(C)=NO` [DMG, dimethylglyoxime] was run?
Answer: 50%

Question: And the Hydrogenase activity ([1]; DMG 0.1 mM in blood-based medium, six hours, H2-enriched microaerobic, DMG D1885 (anhydrous))?
Answer: 14.0 ± 2.7 nmoles H2 oxidized per minute per 10^9 cells

Question: What about the Hydrogenase activity ([1]; DMG 0.5 mM) of the same molecule?
Answer: 4.6 ± 1.2 nmoles H2 oxidized per minute per 10^9 cells

Question: What about the Hydrogenase activity ([1]; DMG 1 mM) of the same molecule?
Answer: 3.9 ± 0.9 nmoles H2 oxidized per minute per 10^9 cells

Question: And the Hydrogenase activity ([1]; DMG 1 mM + NiCl2 0.05 mM)?
Answer: 6.9 ± 1.7 nmoles H2 oxidized per minute per 10^9 cells

Question: And the Hydrogenase activity ([1]; DMG 5 mM)?
Answer: 0.8 ± 0.1 nmoles H2 oxidized per minute per 10^9 cells

Question: What about the mortality [2, 4] of the same molecule?
Answer: 100%

Question: What about the “postponement of time of death” value [2, 4] of the same molecule?
Answer: two

Question: And the mouse survival ([2]; oral 3 mg DMG six hours post-infection then daily for nine days, n=4)?
Answer: 50%

Question: What about the mouse survival ([2]; oral 3 mg DMG six hours post-infection then daily for seven days, n=8) of the same molecule?
Answer: 37.5%

Question: And the “bacterial colonization of livers vs non-DMG treated group” value [2, 5]?
Answer: Significantly lower

Question: And the “bacterial colonization of spleens vs non-DMG treated group” value [2, 5]?
Answer: Significantly lower

Question: And the “C. jejuni Average CFUs per g of cecum (x10^8)” value (“C. jejuni Average CFUs per g” for short) ([3]; Experiment 1, ad libitum CuSO4 (0.2 mM) + DMG (10 mM), 9 days p.i.)?
Answer: 1.12 x10^8 CFUs per g of cecum

Question: What about the “Chickens Cj-free (n=)” value [3, 6] of the same molecule?
Answer: 2

Question: And the “Chickens Colonized (n=)” value [3, 6]?
Answer: 4

Question: And the “C. jejuni Average CFUs per g” value ([3]; Experiment 2, ad libitum CuSO4 (0.2 mM) + DMG (15 mM), 8 days p.i.)?
Answer: 1.99 x10^8 CFUs per g of cecum

Question: What about the “Chickens Cj-free (n=)” value [3, 7] of the same molecule?
Answer: 0

Question: And the “Chickens Colonized (n=)” value [3, 7]?
Answer: 5

Question: What about the “C. jejuni Average CFUs per g” value ([3]; Experiment 2, ad libitum DMG (15 mM), 8 days p.i.) of the same molecule?
Answer: 2.38 x10^8 CFUs per g of cecum

Question: What about the “Chickens Cj-free (n=)” value [3, 8] of the same molecule?
Answer: 1

Question: What about the “Chickens Colonized (n=)” value [3, 8] of the same molecule?
Answer: 6

Question: What about the “chickens in which C. jejuni was not recovered” value ([3]; first trial, Cu-DMG treated group (n=6)) of the same molecule?
Answer: 33%

Question: And the “decrease in bacterial count in the cecum compared to the copper-only control” value [3, 9]?
Answer: 5 fold

Question: And the “decrease in bacterial count in the cecum compared to the water-only control” value [3, 9]?
Answer: 3 fold

Question: What about the “decrease in bacterial burden compared to the water control” value ([3]; second trial, DMG (15 mM) combined with CuSO4 (0.2 mM)) of the same molecule?
Answer: approximately 3.5 fold

Question: What about the “less bacterial colonization of the cecum compared to the water only control” value ([3]; second trial, DMG only (15 mM)) of the same molecule?
Answer: approximately 3 fold

Question: What about the “inhibition of Aβ40 aggregation” value (Aβ40 peptide; 500 mM or 1000 mM DMG (so in the source), no supplemented metal) of the same molecule?
Answer: partial or full inhibition

Question: What about the remaining activity at 100 µM (Aβ40 peptide; experiment A, Cu 10 μM) of the same molecule?
Answer: 54 ± 12%

Question: And the remaining activity at 100 µM (Aβ40 peptide; experiment A, Ni 10 μM)?
Answer: 58 ± 11%

Question: And the remaining activity at 100 µM (Aβ40 peptide; experiment A, Zn 10 μM)?
Answer: 457 ± 39%

Question: And the remaining activity at 100 µM (Aβ40 peptide; experiment A, no supplemental metal)?
Answer: 33 ± 2%

Question: What about the remaining activity at 100 µM (Aβ40 peptide; experiment B, Ni 100 μM) of the same molecule?
Answer: 410 ± 91%

Question: What about the remaining activity at 100 µM (Aβ40 peptide; [10]) of the same molecule?
Answer: 15 ± 14%

Question: And the remaining activity at 500 µM (Aβ40 peptide; experiment B, Ni 100 μM)?
Answer: < 1%

Question: What about the remaining activity at 500 µM (Aβ40 peptide; experiment B, Zn 100 μM) of the same molecule?
Answer: 833 ± 156%

Question: And the remaining activity at 500 µM (Aβ40 peptide; [10])?
Answer: < 1%

Question: What about the remaining activity at 1000 µM (Aβ40 peptide; experiment B, Ni 100 μM) of the same molecule?
Answer: < 1%

Question: And the remaining activity at 1000 µM (Aβ40 peptide; experiment B, Zn 100 μM)?
Answer: 328 ± 63%

Question: What about the remaining activity at 1000 µM (Aβ40 peptide; [10]) of the same molecule?
Answer: < 1%

Question: What about the remaining activity at 100 µM (Aβ40 peptide; experiment C, Cu 100 μM) of the same molecule?
Answer: 66 ± 15%

Question: What about the remaining activity at 100 µM (Aβ40 peptide; [11]) of the same molecule?
Answer: 48 ± 8%

Question: And the remaining activity at 500 µM (Aβ40 peptide; experiment C, Cu 100 μM)?
Answer: 49 ± 8%

Question: And the remaining activity at 500 µM (Aβ40 peptide; [11])?
Answer: 15 ± 5%

Question: What about the remaining activity at 1000 µM (Aβ40 peptide; experiment C, Cu 100 μM) of the same molecule?
Answer: 40 ± 3%

Question: What about the remaining activity at 1000 µM (Aβ40 peptide; [11]) of the same molecule?
Answer: 21 ± 10%

Question: And the “inhibition of Aβ40 aggregation” value (Aβ40 peptide; increasing amounts of DMG in presence of 100 mM Cu^2+ or Zn^2+ (so in the source))?
Answer: partial inhibition

Question: What about the “inhibition of Aβ40 aggregation” value (Aβ40 peptide; increasing amounts of DMG in presence of 100 mM Ni^2+ (so in the source)) of the same molecule?
Answer: Complete inhibition

Question: What about the “Aβ40 peptide aggregation under all pHs tested” value (Aβ40 peptide; pH 6.5, 7.5 or 8.5, 25 mM Aβ40, CuSO4 25 mM, ZnSO4 10 mM or DMG 100 mM (so in the source)) of the same molecule?
Answer: negligible

From patent US20220117266A1, “NICKEL CHELATION THERAPY” (priority 2019, published 2022)
